# Experiment: method code SF, from DOI: 10.1021/jf00070a034
row,Structure (SMILES),logP
1,C=CCNc1nc(Cl)nc(NCC=C)n1,2.75
2,CCNc1nc(Cl)nc(NC2CC2)n1,2.13
3,CC(C)CNC(=O)Nc1ccc(Cl)c(Cl)c1,4.48
4,CCCC(C)C(=O)Nc1ccc(C)c(Cl)c1 (stereo not drawn),4.31
5,CCCCCC(C)Nc1nc(Cl)nc(NCC)n1 (stereo not drawn),4.74
6,CCNc1nc(Cl)nc(NC2CCC2)n1,2.77
7,CCNc1nc(Cl)nc(NC2CCCCC2)n1,3.63
8,CNC(=O)Nc1cccc(OC)c1,1.26
9,CN(C)C(=O)Nc1ccc(Cl)cc1,2.01
10,C=CC(C)C(=O)Nc1ccc(Cl)c(Cl)c1 (stereo not drawn),3.49
11,CCCC(C)(C)C(=O)Nc1ccc(Cl)cc1,3.83
12,CCNc1nc(Cl)nc(NCC2CC2)n1,2.85

# Next, values leading:
row,logP,Structure (SMILES)
1,3.6,CC1(NC(=O)Nc2ccccc2)CCCCC1
2,3.21,CN(C)C(=O)Nc1cccc(CCc2ccccc2)c1
3,3.17,O=C(Cc1ccccc1)Nc1ccc([N+](=O)[O-])cc1
4,2.55,CCCc1ccc(NC(=O)N(C)C)cc1
5,2.83,CN(C)C(=O)Nc1cccc(Cc2ccccc2)c1
6,2.72,O=C(Cc1ccccc1)Nc1ccccc1

# Source: the SangsterLogP compilation
